Source: PubChem BioAssay (NCI)
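Values below derive from 48-hour exposures of cells grown in 96-well plates, with endpoints linearly interpolated between the two concentrations bracketing the appropriate inhibition level. The concentration for full growth arrest is given as TGI.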

Experiments:
Experiment in all cases: growth of human tumour cells (NCI), 48 h
NCI-H226 lung = tested on: NCI-H226 lung
T-47D breast = tested on: T-47D breast
PC-3 prostate = tested on: PC-3 prostate
IGROV1 ovarian = tested on: IGROV1 ovarian
OVCAR-4 ovarian = tested on: OVCAR-4 ovarian
LOX IMVI melanoma = tested on: LOX IMVI melanoma
A549 NSCLC = tested on: A549 NSCLC
SF-539 CNS = tested on: SF-539 CNS
SW-620 colon = tested on: SW-620 colon
MALME-3M melanoma = tested on: MALME-3M melanoma
OVCAR-3 ovarian = tested on: OVCAR-3 ovarian
SK-MEL-28 melanoma = tested on: SK-MEL-28 melanoma
MDA-N = tested on: MDA-N
KM12 colon = tested on: KM12 colon
UACC-257 melanoma = tested on: UACC-257 melanoma
SNB-19 CNS = tested on: SNB-19 CNS
HL-60(TB) leukemia = tested on: HL-60(TB) leukemia
RPMI-8226 leukemia = tested on: RPMI-8226 leukemia
HOP-92 NSCLC = tested on: HOP-92 NSCLC
A498 renal = tested on: A498 renal
CCRF-CEM leukemia = tested on: CCRF-CEM leukemia
HT29 colon = tested on: HT29 colon
NCI/ADR-RES ovarian = tested on: NCI/ADR-RES ovarian
SNB-75 CNS = tested on: SNB-75 CNS
MCF7 breast = tested on: MCF7 breast
SF-295 CNS = tested on: SF-295 CNS
SN12C renal = tested on: SN12C renal
HOP-62 NSCLC = tested on: HOP-62 NSCLC
UACC-62 melanoma = tested on: UACC-62 melanoma
786-0 renal = tested on: 786-0 renal
HCT-15 colon = tested on: HCT-15 colon
SR leukemia = tested on: SR leukemia
CAKI-1 renal = tested on: CAKI-1 renal
MOLT-4 leukemia = tested on: MOLT-4 leukemia
UO-31 renal = tested on: UO-31 renal
OVCAR-5 ovarian = tested on: OVCAR-5 ovarian
DU-145 prostate = tested on: DU-145 prostate
SK-MEL-5 melanoma = tested on: SK-MEL-5 melanoma
NCI-H23 lung = tested on: NCI-H23 lung
HCT-116 colon = tested on: HCT-116 colon
U251 CNS = tested on: U251 CNS
M14 melanoma = tested on: M14 melanoma
TK-10 renal = tested on: TK-10 renal
K-562 leukemia = tested on: K-562 leukemia
EKVX NSCLC = tested on: EKVX NSCLC
SF-268 CNS = tested on: SF-268 CNS
NCI-H522 lung = tested on: NCI-H522 lung
HS 578T breast = tested on: HS 578T breast
ACHN renal = tested on: ACHN renal
OVCAR-8 ovarian = tested on: OVCAR-8 ovarian
BT-549 breast = tested on: BT-549 breast
HCC-2998 colon = tested on: HCC-2998 colon
SK-OV-3 ovarian = tested on: SK-OV-3 ovarian
COLO 205 colon = tested on: COLO 205 colon
RXF 393 renal = tested on: RXF 393 renal
MDA-MB-435 = tested on: MDA-MB-435
NCI-H460 lung = tested on: NCI-H460 lung
MDA-MB-231 breast = tested on: MDA-MB-231 breast

COc1ccc2nc3cc(Cl)ccc3c(NCCNCCCNC(=O)c3cc(-c4ccccc4)nc4ccccc34)c2c1
TGI (NCI-H226 lung): > 100 µM
TGI (T-47D breast): > 100 µM
TGI (PC-3 prostate): > 100 µM
TGI (IGROV1 ovarian): > 100 µM
TGI (OVCAR-4 ovarian): > 100 µM
TGI (LOX IMVI melanoma): > 100 µM
TGI (A549 NSCLC): > 100 µM
TGI (SF-539 CNS): > 100 µM
TGI (SW-620 colon): > 100 µM
TGI (MALME-3M melanoma): > 100 µM
TGI (OVCAR-3 ovarian): > 100 µM
TGI (SK-MEL-28 melanoma): > 100 µM
TGI (MDA-N): 97.5 µM
TGI (KM12 colon): > 100 µM
TGI (UACC-257 melanoma): > 100 µM
TGI (SNB-19 CNS): > 100 µM
TGI (HL-60(TB) leukemia): > 100 µM
TGI (RPMI-8226 leukemia): > 100 µM
TGI (HOP-92 NSCLC): > 100 µM
TGI (A498 renal): > 100 µM
TGI (CCRF-CEM leukemia): > 100 µM
TGI (HT29 colon): > 100 µM
TGI (NCI/ADR-RES ovarian): > 100 µM
TGI (SNB-75 CNS): > 100 µM
TGI (MCF7 breast): > 100 µM
TGI (SF-295 CNS): > 100 µM
TGI (SN12C renal): > 100 µM
TGI (HOP-62 NSCLC): > 100 µM
TGI (UACC-62 melanoma): > 100 µM
TGI (786-0 renal): > 100 µM
TGI (HCT-15 colon): > 100 µM
TGI (SR leukemia): > 100 µM
TGI (CAKI-1 renal): > 100 µM
TGI (MOLT-4 leukemia): > 100 µM
TGI (UO-31 renal): > 100 µM
TGI (OVCAR-5 ovarian): > 100 µM
TGI (DU-145 prostate): > 100 µM
TGI (SK-MEL-5 melanoma): > 100 µM
TGI (NCI-H23 lung): > 100 µM
TGI (HCT-116 colon): > 100 µM
TGI (U251 CNS): > 100 µM
TGI (M14 melanoma): > 100 µM
TGI (TK-10 renal): > 100 µM
TGI (K-562 leukemia): > 100 µM
TGI (EKVX NSCLC): > 100 µM
TGI (SF-268 CNS): > 100 µM
TGI (NCI-H522 lung): > 100 µM
TGI (HS 578T breast): > 100 µM
TGI (ACHN renal): > 100 µM
TGI (OVCAR-8 ovarian): > 100 µM
TGI (BT-549 breast): > 100 µM
TGI (HCC-2998 colon): > 100 µM
TGI (SK-OV-3 ovarian): > 100 µM
TGI (COLO 205 colon): > 100 µM
TGI (RXF 393 renal): > 100 µM
TGI (MDA-MB-435): > 100 µM
TGI (NCI-H460 lung): > 100 µM
TGI (MDA-MB-231 breast): > 100 µM
